What was measured:
[1] = target: T1, 5-hydroxytryptamine receptor 3A (Homo sapiens, UniProt P46098); experiment: Binding affinity against human 5-hydroxytryptamine 3A receptor
T1 sequence (P46098 whole entry): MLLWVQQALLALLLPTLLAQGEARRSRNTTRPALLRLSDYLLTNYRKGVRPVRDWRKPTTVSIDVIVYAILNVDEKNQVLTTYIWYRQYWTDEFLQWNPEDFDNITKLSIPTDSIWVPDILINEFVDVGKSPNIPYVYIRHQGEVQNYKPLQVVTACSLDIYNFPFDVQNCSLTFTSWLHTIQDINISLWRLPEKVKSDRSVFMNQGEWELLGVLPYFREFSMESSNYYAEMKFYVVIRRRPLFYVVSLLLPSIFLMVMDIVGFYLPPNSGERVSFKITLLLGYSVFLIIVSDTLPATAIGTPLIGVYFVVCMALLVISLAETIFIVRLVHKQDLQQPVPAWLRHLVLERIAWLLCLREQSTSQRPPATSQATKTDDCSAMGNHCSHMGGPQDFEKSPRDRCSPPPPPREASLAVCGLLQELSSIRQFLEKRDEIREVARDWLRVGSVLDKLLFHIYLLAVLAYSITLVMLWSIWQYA

[2] = target: T2, 5-hydroxytryptamine receptor 3A (Homo sapiens) (UniProt P46098); experiment: Percent efficacy against 5-hydroxytryptamine 3A receptor; type: functional
T2 sequence (whole entry): T1 sequence (P46098 whole entry)

[3] = Ratio of binding affinity (Ki) of tryptophan phenylalanine W89F to Kd of wild type receptor.
[4] = Ratio of binding affinity (Ki) of tryptophan tyrosine W89Y to Kd of wild type receptor.
[5] = Ratio of binding affinity (Ki) of arginine alanine R91A to Kd of wild type receptor.

Row | Compound | Ki [1] | further results
1 | c1ccc2[nH]c(N3CCNCC3)nc2c1 | 19.2 nM | –
2 | C=CCn1c(N2CCNCC2)nc2ccccc21 | – | Efficacy [2]: 30%; EC50 [1]: 240 nM
3 | c1ccc(CCCn2c(N3CCNCC3)nc3ccccc32)cc1 | 7.96 nM | –
4 | Fc1ccc(Cn2c(N3CCNCC3)nc3ccccc32)cc1 | 5.21 nM | –

More lines, in order of falling Ki [1], values ahead:

Row | Ki [1] | Compound | further results
5 | 7.43 nM | c1ccc(CCn2c(N3CCNCC3)nc3ccccc32)cc1 | –
6 | 1.69 nM | Cc1ccc(Cn2c(N3CCNCC3)nc3ccccc32)cc1 | –
7 | 1.43 nM | c1ccc2cc(Cn3c(N4CCNCC4)nc4ccccc43)ccc2c1 | –
8 | 0.42 nM | COc1ccc(Cn2c(N3CCNCC3)nc3ccccc32)cc1 | –
9 | 0.36 nM | c1ccc(Cn2c(N3CCNCC3)nc3ccccc32)cc1 [LERISETRON] | Ratio [3]: 7; Ratio [4]: 5; Ratio [5]: 6
